Source: patent publication US4039550A, “Lower-alkyl (5-substituted-2-pyridyl)carbamodithioates” (Sterling Drug Inc., priority 1976, dated 1977)

Key:
bacteria = details: Foye et al., J. Am. Pharm. Assoc. 47, 556-558 (1958); cited from earlier work
H. nana = test: Anthelmintic screening in mice against H. nana (tapeworm), four-day medication; format: in vivo, Hymenolepis nana in Swiss mice; details: 200 mg./kg./day p.o. for four days
Procedure: In tests against the tapeworm, H. nana, Swiss mice weighing approximately 20 grams were infected with approximately 12,000 ova of H. nana administered in 10% gelatin via stomach tube. The test compounds, made up in 10% gelatin, were administered via stomach tube in equally divided doses daily for four consecutive days beginning twelve days after infection. Four days after the final medication, the animals were sacrificed and examined for the presence of worms. Efficacy was judged by the percent of mice cleared compared to non-medicated control mice.
(§1) Data obtained in anthelmintic screening tests against the helminth infections, N. dubius (a), H. nana (b) and S. obvelata (c), are given in the table below. Results are expressed in terms of the percent of animals cleared at a standard dose of 200 mg./kg./day (p.o.) for four days; as percent of animals cleared at a single dose (S.D.) of 25 mg./kg.; or as an ED50 on single dose administration (ED50) against N. dubius.

N. dubius [1] = test: Anthelmintic screening in mice against N. dubius (roundworm), four-day medication; format: in vivo, Nematospiroides dubius in Swiss mice; details: 200 mg./kg./day p.o. for four days
Procedure: (§2) Anthelmintic activity was determined in mice against one species of roundworm (Nematospiroides dubius), one species of pinworm (Syphacia obvelata) and one species of tapeworm (Hymenolepis nana). The various test procedures used are described as follows: Swiss mice weighing approximately 20 grams were infected with approximately 20 larvae of N. dubius which were administered in 10% gelatin via stomach tube. For screening purposes, compounds, made up in 10% galatin, were administered via stomach tube in equally divided daily doses for four consecutive days beginning fourteen days after infection. Four days after the final medication, the animals were sacrificed and examined for the presence of worms. Efficacy against N. dubius was judged on the basis of percent worm reduction compared to control non-medicated mice. In addition, for the purpose of evaluation, the compounds were administered orally to a series of animals at graded doses, each animal receiving a single dose, and the results against N. dubius expressed in terms of an Effective Dose50 (ED50), the ED50 representing the dose necessary to remove 50% of the worm burden.
as §1

S. obvelata = test: Anthelmintic screening in mice against S. obvelata (pinworm), four-day medication; format: in vivo, Syphacia obvelata in Swiss mice; details: 200 mg./kg./day p.o. for four days
Source text: The same test procedures described above were used to assess the effectiveness of the compounds against S. obvelata, a naturally occurring pinworm infection in Swiss mice. Efficacy was judged by the percent of mice cleared of the infection compared to non-medicated control mice.
as §1

N. dubius [2] = test: Anthelmintic single-dose test in mice against N. dubius (S.D. and ED50); format: in vivo, Nematospiroides dubius in Swiss mice; details: for ED50: Heligmosomoides polygyrus, against N. dubius, single oral dose, dose necessary to remove 50% of the worm burden, read-out: ED50 on single dose administration
Procedure: as §2, §1

Row | Structure (SMILES) | anti-bacterial activity (bacteria) | % Cleared/200 mg./kg. (b) (H. nana) | % Cleared/200 mg./kg. (a) (N. dubius [1]) | % Cleared/200 mg./kg. (c) (S. obvelata) | ED50 (N. dubius [2]) | S.D. (percent of animals cleared at a single dose) (N. dubius [2]; single dose of 25 mg./kg., mice)
1 | CCSC(=S)Nc1ccccn1 [Ethyl (2-pyridyl)-carbamodithioate] | active as an anti-bacterial agent |  |  |  |  | 
2 | CSC(=S)Nc1ccc(Cl)cn1 [Example 1, methyl (5-chloro-2-pyridyl)carbamodithioate] |  | 80% | 100% | 40% | 2 ± 0.917 mg/kg | 
3 | CSC(=S)Nc1ccc(C)cn1 [Example 2, methyl (5-methyl-2-pyridyl)carbamodithioate] |  | 30% | 100% | 30% | 7.75 ± 3.54 mg/kg | 
4 | CSC(=S)Nc1ccc(N(C)C)cn1 [Example 3, methyl (5-dimethylamino-2-pyridyl)carbamodithioate] |  | 0% | 100% | 0% |  | 64.5%
